From patent publication US8613914B2, “Peptidomimetic sulfamide compounds and antiviral uses thereof” (Novartis AG, priority 2009, dated 2013)

Biological target: HCV NS3-4A serine protease (full-length NS3-4A protein) (Hepatitis C virus genotype 1a (isolate 1) (HCV), UniProt P26664)
Test: HCV NS3-4A protease assay
Type: biochemical, HCV genotype 1a
Conditions: strain HCV-1, fluorogenic peptide substrate, read-out: Protease assay Ex. 12 IC50
Procedure: The inhibitory activity of certain compounds of Table A against HCV NS3-4A serine protease is determined in a homogenous assay using the full-length NS3-4A protein (genotype 1a, strain HCV-1) and a commercially available internally-quenched fluorogenic peptide substrate as described by Taliani, M., et al. 1996 Anal. Biochem. 240:60-67, which is incorporated by reference in its entirety.

HCV NS3-4A serine protease (full-length NS3-4A protein), sequence (P26664 1027-1657): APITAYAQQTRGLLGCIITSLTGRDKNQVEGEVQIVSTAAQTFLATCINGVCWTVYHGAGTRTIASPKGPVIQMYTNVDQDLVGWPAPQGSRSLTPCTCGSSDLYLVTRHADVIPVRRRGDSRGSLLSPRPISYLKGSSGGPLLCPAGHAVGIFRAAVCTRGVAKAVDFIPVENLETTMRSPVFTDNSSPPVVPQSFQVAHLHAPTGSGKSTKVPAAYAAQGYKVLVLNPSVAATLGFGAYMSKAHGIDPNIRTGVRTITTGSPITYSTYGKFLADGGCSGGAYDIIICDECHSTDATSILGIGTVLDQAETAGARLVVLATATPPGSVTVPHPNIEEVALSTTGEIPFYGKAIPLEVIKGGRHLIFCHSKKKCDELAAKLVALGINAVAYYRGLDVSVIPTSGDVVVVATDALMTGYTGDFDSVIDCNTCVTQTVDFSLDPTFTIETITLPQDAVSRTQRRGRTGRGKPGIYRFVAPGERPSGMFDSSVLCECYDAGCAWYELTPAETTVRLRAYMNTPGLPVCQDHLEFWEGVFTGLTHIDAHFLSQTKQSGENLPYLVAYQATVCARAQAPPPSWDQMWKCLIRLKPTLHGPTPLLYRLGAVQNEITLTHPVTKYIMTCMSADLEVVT
HCV NS3-4A serine protease (full-length NS3-4A protein), sequence (P26664 1658-1711 partner): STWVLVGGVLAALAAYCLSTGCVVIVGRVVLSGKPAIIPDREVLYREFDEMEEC

C=C[C@@H]1C[C@]1(NC(=O)[C@@H]1C[C@@]2(CN1C(=O)[C@@H](NC(=O)[C@@H](NC(=O)c1ccc3[nH]ccc3c1)C1CCCCC1)C(C)(C)C)C(C)(C)C21CCC1)C(=O)NS(=O)(=O)N1CCCC1 [Compound 190, (5R,8S)-7-[(2S)-2-({cyclohexyl[(1H-indol-5-ylcarbonyl)amino]acetyl}amino)-3,3-dimethylbutanoyl]-10,10-dimethyl-N-{(1R,2S)-1-[(pyrrolidin-1-ylsulfonyl)carbamoyl]-2-vinylcyclopropyl}-7-azadispiro[3.0.4.1]decane-8-carboxamide]
IC50: 20 nM

C=C[C@@H]1C[C@]1(NC(=O)[C@@H]1C[C@@]2(CN1C(=O)[C@@H](NC(=O)CC1(CC#N)CCCCC1)C(C)(C)C)C(C)(C)C21CCC1)C(=O)NS(=O)(=O)N1CCCC1 [Compound 61, (5R,8S)-7-[(2S)-2-({[1-(cyanomethyl)cyclohexyl]acetyl}amino)-3,3-dimethylbutanoyl]-10,10-dimethyl-N-{(1R,2S)-1-[(pyrrolidin-1-ylsulfonyl)carbamoyl]-2-vinylcyclopropyl}-7-azadispiro[3.0.4.1]decane-8-carboxamide]
IC50: 750 nM

C=C[C@@H]1C[C@]1(NC(=O)[C@@H]1C[C@@]2(CN1C(=O)[C@@H](NC(=O)[C@@H](NC(=O)[C@@H]1CCCN1CC(F)(F)F)C1CCCCC1)C1CCOCC1)C(C)(C)C21CCC1)C(=O)NS(=O)(=O)N1CCCC1 [Compound 71, (5R,8S)-7-[(2S)-2-{[(2S)-2-cyclohexyl-2-({[(2S)-1-(2,2,2-trifluoroethyl)pyrrolidin-2-yl]carbonyl}amino)acetyl]amino}-2-(tetrahydro-2H-pyran-4-yl)acetyl]-10,10-dimethyl-N-{(1R,2S)-1-[(pyrrolidin-1-ylsulfonyl)carbamoyl]-2-vinylcyclopropyl}-7-azadispiro[3.0.4.1]decane-8-carboxamide]
IC50: 40 nM

C=C[C@@H]1C[C@]1(NC(=O)[C@@H]1C[C@@]2(CN1C(=O)[C@@H](NC(=O)[C@@H](NC(=O)c1cccc(N(C)C)n1)C1CCCCC1)C(C)(C)C)C(C)(C)C21CCC1)C(=O)NS(=O)(=O)N1CCCC1 [Compound 69, (5R,8S)-7-[(2S)-2-{[(2S)-2-cyclohexyl-2-({[6-(dimethylamino)pyridin-2-yl]carbonyl}amino)acetyl]amino}-3,3-dimethylbutanoyl]-10,10-dimethyl-N-{(1R,2S)-1-[(pyrrolidin-1-ylsulfonyl)carbamoyl]-2-vinylcyclopropyl}-7-azadispiro[3.0.4.1]decane-8-carboxamide]
IC50: 50 nM

C=C[C@@H]1C[C@]1(NC(=O)[C@@H]1C[C@@]2(CN1C(=O)[C@@H](NC(=O)[C@@H](NC(=O)[C@@H]1CCCN1CC)C1CCCCC1)C(C)(C)C)C(C)(C)C21CCC1)C(=O)NS(=O)(=O)N(CC)CC [Compound 63, (5R,8S)-7-[(2S)-2-{[(2S)-2-cyclohexyl-2-({[(2S)-1-ethylpyrrolidin-2-yl]carbonyl}amino)acetyl]amino}-3,3-dimethylbutanoyl]-N-[(1R,2S)-1-{[(diethylamino)sulfonyl]carbamoyl}-2-vinylcyclopropyl]-10,10-dimethyl-7-azadispiro[3.0.4.1]decane-8-carboxamide]
IC50: 1.2 nM

CC[C@@H]1C[C@]1(NC(=O)[C@@H]1C[C@@]2(CN1C(=O)[C@@H](NC(=O)[C@@H](NC(=O)[C@@H]1CCCCN1C(C)C)C1CCCCC1)C(C)(C)C)C(C)(C)C21CCC1)C(=O)NS(=O)(=O)N(C)C1CC1 [Compound 90, (5R,8S)-7-[(2S)-2-{[(2S)-2-cyclohexyl-2-({[(2S)-1-isopropylpiperidin-2-yl]carbonyl}amino)acetyl]amino}-3,3-dimethylbutanoyl]-N-[(1R,2R)-1-({[cyclopropyl(methyl)amino]sulfonyl}carbamoyl)-2-ethylcyclopropyl]-10,10-dimethyl-7-azadispiro[3.0.4.1]decane-8-carboxamide]
IC50: 6.5 nM

C=C[C@@H]1C[C@]1(NC(=O)[C@@H]1C[C@@]2(CN1C(=O)[C@@H](NC(=O)[C@@H](NC(=O)[C@@H]1CCCN1CCF)C1CCCCC1)C1CCOCC1)C(C)(C)C21CCC1)C(=O)NS(=O)(=O)N1CCCC1 [Compound 73, (5R,8S)-7-[(2S)-2-{[(2S)-2-cyclohexyl-2-({[(2S)-1-(2-fluoroethyl)pyrrolidin-2-yl]carbonyl}amino)acetyl]amino}-2-(tetrahydro-2H-pyran-4-yl)acetyl]-10,10-dimethyl-N-{(1R,2S)-1-[(pyrrolidin-1-ylsulfonyl)carbamoyl]-2-vinylcyclopropyl}-7-azadispiro[3.0.4.1]decane-8-carboxamide]
IC50: 15 nM

C=C[C@@H]1C[C@]1(NC(=O)[C@@H]1C[C@@]2(CN1C(=O)[C@@H](NC(=O)[C@@H](NC(=O)[C@@H]1CCCN1CC)C1CCCCC1)C1CCOCC1)C(C)(C)C21CCC1)C(=O)NS(=O)(=O)N(CC)CC [Compound 96, (5R,8S)-7-[(2S)-2-{[(2S)-2-cyclohexyl-2-({[(2S)-1-ethylpyrrolidin-2-yl]carbonyl}amino)acetyl]amino}-2-(tetrahydro-2H-pyran-4-yl)acetyl]-N-[(1R,2S)-1-{[(diethylamino)sulfonyl]carbamoyl}-2-vinylcyclopropyl]-10,10-dimethyl-7-azadispiro[3.0.4.1]decane-8-carboxamide]
IC50: 7 nM

C=C[C@@H]1C[C@]1(NC(=O)[C@@H]1C[C@@]2(CN1C(=O)[C@@H](NC(=O)[C@@H](NC(=O)[C@@H]1CCCCN1C1CCCC1)C1CCCCC1)C(C)(C)C)C(C)(C)C21CCC1)C(=O)NS(=O)(=O)N(CC)CC [Compound 64, (5R,8S)-7-[(2S)-2-{[(2S)-2-cyclohexyl-2-({[(2S)-1-cyclopentylpiperidin-2-yl]carbonyl}amino)acetyl]amino}-3,3-dimethylbutanoyl]-N-[(1R,2S)-1-{[(diethylamino)sulfonyl]carbamoyl}-2-vinylcyclopropyl]-10,10-dimethyl-7-azadispiro[3.0.4.1]decane-8-carboxamide]
IC50: 2 nM

C=C[C@@H]1C[C@]1(NC(=O)[C@@H]1C[C@@]2(CN1C(=O)[C@@H](NC(=O)[C@@H](NC(=O)[C@@H]1CCCCN1C(C)C)C1CCCCC1)C(C)(C)C)C(C)(C)C21CCC1)C(=O)NS(=O)(=O)NC1CCC1 [Compound 57, (5R,8S)-N-[(1R,2S)-1-{[(cyclobutylamino)sulfonyl]carbamoyl}-2-vinylcyclopropyl]-7-[(2S)-2-{[(2S)-2-cyclohexyl-2-({[(2S)-1-isopropylpiperidin-2-yl]carbonyl}amino)acetyl]amino}-3,3-dimethylbutanoyl]-10,10-dimethyl-7-azadispiro[3.0.4.1]decane-8-carboxamide]
IC50: 6.5 nM

C=C[C@@H]1C[C@]1(NC(=O)[C@@H]1C[C@@]2(CN1C(=O)[C@@H](NC(=O)[C@@H](NC(=O)[C@@H]1CCCCN1C(C)C)C1CCCCC1)C(C)(C)C)C(C)(C)C21CCC1)C(=O)NS(=O)(=O)N(CC)C(C)C [Compound 110, (5R,8S)-7-[(2S)-2-{[(2S)-2-cyclohexyl-2-({[(2S)-1-isopropylpiperidin-2-yl]carbonyl}amino)acetyl]amino}-3,3-dimethylbutanoyl]-N-[(1R,2S)-1-({[ethyl(isopropyl)amino]sulfonyl}carbamoyl)-2-vinylcyclopropyl]-10,10-dimethyl-7-azadispiro[3.0.4.1]decane-8-carboxamide]
IC50: 8 nM

C=C[C@@H]1C[C@]1(NC(=O)[C@@H]1C[C@@]2(CN1C(=O)[C@@H](NC(=O)[C@@H](NC(=O)[C@@H]1CCCCN1C(C)C)C1CCCCC1)C(C)(C)C)C(C)(C)C21CCC1)C(=O)NS(=O)(=O)N(C)C1CCC1 [Compound 49, (5R,8S)-N-[(1R,2S)-1-({[cyclobutyl(methyl)amino]sulfonyl}carbamoyl)-2-vinylcyclopropyl]-7-[(2S)-2-{[(2S)-2-cyclohexyl-2-({[(2S)-1-isopropylpiperidin-2-yl]carbonyl}amino)acetyl]amino}-3,3-dimethylbutanoyl]-10,10-dimethyl-7-azadispiro[3.0.4.1]decane-8-carboxamide]
IC50: 3.3 nM

C=C[C@@H]1C[C@]1(NC(=O)[C@@H]1C[C@@]2(CN1C(=O)[C@@H](NC(=O)C(Nc1cccnc1)C(C)(C)C)C(C)(C)C)C(C)(C)C21CCC1)C(=O)NS(=O)(=O)N1CCCC1 (stereo partly drawn) [Compound 51, (5R,8S)-7-[(2S)-2-{[3,3-dimethyl-2-(pyridin-3-ylamino)butanoyl]amino}-3,3-dimethylbutanoyl]-10,10-dimethyl-N-{(1R,2S)-1-[(pyrrolidin-1-ylsulfonyl)carbamoyl]-2-vinylcyclopropyl}-7-azadispiro[3.0.4.1]decane-8-carboxamide]
IC50: 1150 nM

C=C[C@@H]1C[C@]1(NC(=O)[C@@H]1C[C@@]2(CN1C(=O)[C@@H](NC(=O)[C@@H](NC(=O)c1cc3cc(OC)ccc3[nH]1)C1CCCCC1)C(C)(C)C)C(C)(C)C21CCC1)C(=O)NS(=O)(=O)N1CCCC1 [Compound 176, (5R,8S)-7-{(2S)-2-[(cyclohexyl{[(5-methoxy-1H-indol-2-yl)carbonyl]amino}acetyl)amino]-3,3-dimethylbutanoyl}-10,10-dimethyl-N-{(1R,2S)-1-[(pyrrolidin-1-ylsulfonyl)carbamoyl]-2-vinylcyclopropyl}-7-azadispiro[3.0.4.1]decane-8-carboxamide]
IC50: 25 nM

C=C[C@@H]1C[C@]1(NC(=O)[C@@H]1C[C@@]2(CN1C(=O)[C@@H](NC(=O)[C@@H](NC(=O)[C@@H]1CCCCN1C(C)C)C1CCCCC1)C(C)(C)C)C(C)(C)C21CCC1)C(=O)NS(=O)(=O)N(C)OC [Compound 55, (5R,8S)-7-[(2S)-2-{[(2S)-2-cyclohexyl-2-({[(2S)-1-isopropylpiperidin-2-yl]carbonyl}amino)acetyl]amino}-3,3-dimethylbutanoyl]-N-[(1R,2S)-1-({[methoxy(methyl)amino]sulfonyl}carbamoyl)-2-vinylcyclopropyl]-10,10-dimethyl-7-azadispiro[3.0.4.1]decane-8-carboxamide]
IC50: 1.4 nM
